Measurements as given in patent US20250144067A1, “PERSONALIZED STARVATION THERAPY FOR CANCER” (Faeth Therapeutics, Inc., priority 2021, published 2025).
Counter-ions that a name gives are not always drawn.

Experiments:
[1] = tested on: NCI-H292 lung cancer cells; experiment: FDA drug screening, complete media vs cholesterol-free media with simvastatin (TABLE 2); type: cell-based, human; conditions: for Cholesterol-free media + simvastatin (0.04 μM) / Complete Media: NCI-H292 cells
[2] = tested on: NCI-H292 lung cancer cells; experiment: FDA drug screening, complete media vs cholesterol-free media without statin (TABLE 1); type: cell-based, human
[3] = FDA drug library screen, cholesterol-free media with simvastatin 0.04 μM
[4] = FDA drug library screen, complete media
[5] = complete media vs cholesterol-free media + simvastatin (0.04 μM), >0 enhanced anti-cancer activity, about 0 neutral, <0 antagonist
[6] = Complete minus Cholesterol-free, greater than 0 enhanced anti-cancer activity, about 0 neutral, below 0 antagonist
[7] = NCI-H292 cells, FDA drug library screen, cholesterol-free media without statin
[8] = NCI-H292 cells, FDA drug library screen, complete media
[9] = Complete minus Cholesterol-free, >0 enhanced anti-cancer activity, about 0 neutral, <0 antagonist
[10] = NCI-H292 cells, cholesterol-free media without statin
[11] = FDA library drug in cholesterol-free media with simvastatin 0.04 μM
[12] = FDA library drug in complete media
[13] = Complete minus Cholesterol-free, greater than 0 enhanced anti-cancer activity, about 0 neutral, below 0 antagonists
[14] = NCI-H292 cells in cholesterol-free media without statin
[15] = NCI-H292 cells in complete media
[16] = Complete minus Cholesterol-free, […]
[17] = cholesterol-free media with simvastatin 0.04 μM, FDA drug library screen (TABLE 2)
[18] = complete media, FDA drug library screen (TABLE 2)
[19] = complete media minus cholesterol-free media + simvastatin (0.04 μM), >0 enhanced anti-cancer activity, about 0 neutral, <0 antagonist
[20] = drug in cholesterol-free media with simvastatin 0.04 μM
[21] = complete media vs cholesterol-free media + simvastatin (0.04 μM), […]
[22] = NCI-H292 cells, cholesterol-free media without statin, FDA drug library screen
[23] = NCI-H292 cells, complete media, FDA drug library screen
[24] = complete vs cholesterol-free media, […]
[25] = complete media minus cholesterol-free media + simvastatin, >0 enhanced anti-cancer activity, about 0 neutral, <0 antagonist
[26] = complete vs cholesterol-free media, greater than 0 enhanced anti-cancer activity, about 0 neutral, below 0 antagonists
[27] = complete vs cholesterol-free media, >0 enhanced anti-cancer activity, about 0 neutral, <0 antagonist

O=C1O[C@H]([C@@H](O)CO)C(O)=C1O [L-Ascorbic acid]
Cholesterol-free media + simvastatin (0.04 μM) [1, 3]: 1.16 | Complete Media [1, 4]: 1.003 | Difference [1, 5]: −0.16 | Difference [2, 6]: −0.14 | Cholesterol-free [2, 7]: 1.001 | Complete [2, 8]: 0.8619

C=Cc1c(C)c2cc3nc(c(CC(=O)N[C@@H](CC(=O)O)C(=O)O)c4[nH]c(cc5nc(cc1[nH]2)C(C)=C5CC)c(C)c4C(=O)O)[C@@H](CCC(=O)O)[C@@H]3C [Talaporfin (sodium)]
Cholesterol-free media + simvastatin (0.04 μM) [1, 3]: 1.087 | Complete Media [1, 4]: 0.9459 | Difference [1, 5]: −0.14 | Difference [2, 9]: −0.29 | Cholesterol-free [2, 10]: 1.22 | Complete ([2]; NCI-H292 cells, complete media): 0.9319

OC[C@H]1O[C@@](CO)(O[C@H]2O[C@H](CO)[C@@H](O)[C@H](O)[C@H]2O)[C@@H](O)[C@@H]1O [Sucrose]
Cholesterol-free media + simvastatin (0.04 μM) [1, 11]: 1.867 | Complete Media [1, 12]: 0.9772 | Difference [1, 5]: −0.89 | Difference [2, 13]: −0.74 | Cholesterol-free [2, 14]: 1.582 | Complete [2, 15]: 0.843

Carbasalate calcium
Complete Media ([1]; complete media, […]): 1.129 | Difference ([1]; complete media minus cholesterol-free media + simvastatin, […]): 0.02 | Difference [2, 16]: −0.21 | Cholesterol-free [2, 10]: 1.087 | Complete ([2]; NCI-H292 cells, complete media): 0.8754

NC(=O)Cc1cccc(C(=O)c2ccccc2)c1N [Nepafenac]
Cholesterol-free media + simvastatin (0.04 μM) [1, 17]: 1.737 | Complete Media [1, 18]: 1.699 | Difference [1, 19]: −0.04 | Difference [2, 13]: −0.71 | Cholesterol-free [2, 14]: 1.612 | Complete [2, 15]: 0.8984

CCC1=C[C@@H]2[C@H](C1)C[C@]2(CN)CC(=O)O [Mirogabalin]
Cholesterol-free media + simvastatin (0.04 μM) [1, 20]: 1.082 | Complete Media ([1]; drug in complete media): 0.8543 | Difference [1, 21]: −0.23 | Cholesterol-free [2, 22]: 0.5074 | Complete [2, 23]: 1.015 | Difference [2, 24]: 0.51

CN(C/C=C/C#CC(C)(C)C)Cc1cccc2ccccc12 [Terbinafine hydrochloride]
Cholesterol-free media + simvastatin (0.04 μM) [1, 3]: 1.241 | Complete Media [1, 4]: 1.124 | Difference [1, 5]: −0.12 | Difference [2, 13]: −0.57 | Cholesterol-free [2, 14]: 1.793 | Complete [2, 15]: 1.222

Cc1onc(-c2ccccc2Cl)c1C(=O)N[C@@H]1C(=O)N2[C@@H]1SC(C)(C)[C@@H]2C(=O)O [Cloxacillin (sodium monohydrate)]
Cholesterol-free media + simvastatin (0.04 μM) ([1]; cholesterol-free media with simvastatin 0.04 μM, cell growth value in FDA drug screen): 1.045 | Complete Media ([1]; complete media, cell growth value in FDA drug screen): 1.18 | Difference [1, 25]: 0.13 | Difference [2, 9]: −0.19 | Cholesterol-free [2, 10]: 1.114 | Complete ([2]; NCI-H292 cells, complete media): 0.9266

CC(=O)N1CCN(c2ccc(OCC3COC(Cn4ccnc4)(c4ccc(Cl)cc4Cl)O3)cc2)CC1 (centres unmarked) [Ketoconazole]
Cholesterol-free media + simvastatin (0.04 μM) [1, 3]: 0.2012 | Complete Media [1, 4]: 0.801 | Difference [1, 25]: 0.60 | Cholesterol-free [2, 10]: 1.003 | Complete ([2]; NCI-H292 cells, complete media): 0.6148 | Difference [2, 26]: −0.39

Cc1ccc(C(C)C)cc2c(C)ccc1-2 [Guaiazulene]
Cholesterol-free media + simvastatin (0.04 μM) [1, 20]: 1.916 | Complete Media ([1]; drug in complete media): 1.674 | Difference [1, 5]: −0.24 | Difference [2, 9]: −0.21 | Cholesterol-free [2, 10]: 1.231 | Complete ([2]; NCI-H292 cells, complete media): 1.025

N#C[C@@H]1CCCN1C(=O)CNC12CC3CC(CC(O)(C3)C1)C2 [Vildagliptin]
Cholesterol-free media + simvastatin (0.04 μM) [1, 3]: 1.588 | Complete Media [1, 4]: 1.466 | Difference [1, 5]: −0.12 | Difference [2, 13]: −0.50 | Cholesterol-free [2, 14]: 1.213 | Complete [2, 15]: 0.7138

CC(=O)O[C@H]1C[C@@H]2CC[C@@H]3[C@H](CC[C@@]4(C)[C@H]3C[C@H]([N+]3(C)CCCCC3)[C@@H]4OC(C)=O)[C@@]2(C)C[C@@H]1[N+]1(C)CCCCC1.[Br-].[Br-] [Pancuronium (dibromide)]
Cholesterol-free media + simvastatin (0.04 μM) [1, 20]: 1.121 | Complete Media ([1]; drug in complete media): 0.885 | Difference [1, 21]: −0.24 | Cholesterol-free [2, 10]: 1.193 | Complete ([2]; NCI-H292 cells, complete media): 0.8678 | Difference [2, 24]: −0.33

NC(=O)N1c2ccccc2CC(=O)c2ccccc21 [Oxcarbazepine]
Cholesterol-free media + simvastatin (0.04 μM) [1, 11]: 1.305 | Complete Media [1, 12]: 0.9097 | Difference [1, 5]: −0.40 | Cholesterol-free [2, 22]: 0.8341 | Complete [2, 23]: 1.538 | Difference [2, 27]: 0.70

Clc1ccc(CO/N=C(\Cn2ccnc2)c2ccc(Cl)cc2Cl)c(Cl)c1 [Oxiconazole nitrate]
Cholesterol-free media + simvastatin (0.04 μM) [1, 3]: 0.3071 | Complete Media [1, 4]: 1.067 | Difference [1, 25]: 0.76 | Difference [2, 9]: 0.00 | Cholesterol-free [2, 22]: 0.7425 | Complete [2, 23]: 0.7401

CC(O)Cn1cnc2c1c(=O)n(C)c(=O)n2C (centres unmarked) [Proxyphylline]
Cholesterol-free media + simvastatin (0.04 μM) [1, 11]: 1.208 | Complete Media [1, 12]: 0.9431 | Difference [1, 5]: −0.26 | Cholesterol-free [2, 22]: 0.7713 | Complete [2, 23]: 1.327 | Difference [2, 27]: 0.56

CCN(CC)CCOC(=O)C(O)(c1ccccc1)c1ccccc1 [Benactyzine hydrochloride]
Cholesterol-free media + simvastatin (0.04 μM) [1, 20]: 1.159 | Complete Media ([1]; drug in complete media): 0.961 | Difference [1, 21]: −0.20 | Difference [2, 16]: −0.51 | Cholesterol-free [2, 14]: 1.39 | Complete [2, 15]: 0.878

Nc1c(Br)cc(Br)cc1CN[C@H]1CC[C@H](O)CC1 [Ambroxol (hydrochloride)]
Cholesterol-free media + simvastatin (0.04 μM) [1, 17]: 1.005 | Complete Media [1, 18]: 0.9822 | Difference [1, 19]: −0.02 | Cholesterol-free [2, 10]: 1.285 | Complete ([2]; NCI-H292 cells, complete media): 0.8347 | Difference [2, 26]: −0.45

Cc1cc2cc3c(C)cc(=O)oc3c(C)c2o1 [Trioxsalen]
Cholesterol-free media + simvastatin (0.04 μM) [1, 3]: 1.056 | Complete Media [1, 4]: 0.9717 | Difference [1, 5]: −0.08 | Cholesterol-free [2, 22]: 1.107 | Complete [2, 23]: 1.239 | Difference [2, 27]: 0.13

Cc1c(OCC(F)(F)F)ccnc1C[S@@+]([O-])c1nc2ccccc2[nH]1 [(R)-Lansoprazole]
Cholesterol-free media + simvastatin (0.04 μM) [1, 17]: 1.431 | Complete Media [1, 18]: 1.389 | Difference [1, 19]: −0.04 | Difference [2, 6]: −0.18 | Cholesterol-free [2, 7]: 0.9835 | Complete [2, 8]: 0.8054

O=C(Nc1c(Cl)cncc1Cl)c1ccc(OC(F)F)c(OCC2CC2)c1 [Roflumilast]
Cholesterol-free media + simvastatin (0.04 μM) [1, 11]: 1.607 | Complete Media [1, 12]: 0.8972 | Difference [1, 5]: −0.71 | Difference [2, 9]: −0.06 | Cholesterol-free [2, 22]: 0.9495 | Complete [2, 23]: 0.8928

CCn1cc(C(=O)O)c(=O)c2cc(F)c(N3CCNCC3)cc21 [Norfloxacin]
Cholesterol-free media + simvastatin (0.04 μM) [1, 11]: 1.696 | Complete Media [1, 12]: 1.396 | Difference [1, 5]: −0.30 | Cholesterol-free [2, 22]: 1.043 | Complete [2, 23]: 1.123 | Difference [2, 27]: 0.08

CCOC(=O)N[C@@H]1CC[C@@H]2[C@@H](C1)C[C@H]1C(=O)O[C@H](C)[C@H]1[C@H]2/C=C/c1ccc(-c2cccc(F)c2)cn1 [Vorapaxar]
Cholesterol-free media + simvastatin (0.04 μM) [1, 17]: 1.048 | Complete Media [1, 18]: 1.005 | Difference [1, 19]: −0.04 | Difference [2, 9]: −0.20 | Cholesterol-free [2, 10]: 1.186 | Complete ([2]; NCI-H292 cells, complete media): 0.984
